These results are taken from US9580426B2, “Compounds that expand hematopoietic stem cells” (Novartis AG, priority 2008, dated 2017).

One may read the EC50 as the midpoint of the concentration-response curve. Read a high EC50 as a less potent agent.

In this experiment the test system is Primary adult CD34+ human hematopoietic stem cells (HSCs). The experiment can be described thus: % CD34+ assay: HSC expansion screen, dose response. Conditions: Homo sapiens, Hematopoietic stem cell; dose response 1 nM to 10 μM; total number and/or percent of CD34+ cells. The format is cell-based. As for the experimental part: Primary adult CD34^+ human hematopoietic stem cells (HSCs) are cultured and screened to identify compounds of the invention that facilitate HSC expansion. The cells are analyzed for the presence of the desired phenotype (CD34 expression). Compounds of the invention promote HSC expansion in a dose dependent manner.
Culture Medium: StemSpan SFEM medium is serum-free medium (StemCell Technologies, Vancouver, BC) supplemented with the following human recombinant cytokines: thrombopoietin, interleukin-6, Flt-3 ligand, and stem cell factor (all from R&D Systems, Minneapolis, Minn.), each at a final concentration of 50 ng/mL, with vehicle (DMSO) or a compound of the invention.
Human Cell Culture: Fresh human leukophoresed G-CSF mobilized peripheral blood from normal donors, CD34^+ cells from adult bone marrow and cryopreserved human cord blood CD34^+ cells are purchased from AllCells (Berkeley, Calif.). Human CD34^+ cells are enriched from leukophoresed G-CSF mobilized peripheral blood using magnetic cell sorting (MACS, Direct CD34 Progenitor Cell Isolation Kit, Miltenyi Biotec, Bergisch Gladbach, Germany) and cryopreserved. CD34^+ cell purity, checked by flow Cytometry, is higher than 90%. After thawing, the cell viability tested by trypan blue exclusion is higher than 70%. The thawed cells are centrifuged and resuspended with StemSpan medium before being aliquoted for immediate culture. Cells are plated at 10^4 cells/mL in a 384 well plate (Greiner Bio-One, Monroe, N.C.) with 50 μL of medium per well for 7 days. Every 7 days the cells are transferred to larger well plates and fresh medium is added to keep the cell density between 10^4 and 5×10^5 cells/mL. Cells were cultured at 37° C. in 5% CO2. For transplantation, cells were cultured in 75 cm^2 flasks before the cells were transplanted into mice. At a concentration of 1 micromolar, 4-(2-(2-(benzo[b]thiophen-3-yl)-9-isopropyl-9H-purin-6-ylamino)ethyl)phenol (compound 1, table 1; example 1), 4-(2-(2-(benzo[b]thiophen-3-yl)-9-sec-butyl-9H-purin-6-ylamino)ethyl)phenol (compound 2, table 1), and N-(2-(1H-indol-3-yl)ethyl)-2-(benzo[b]thiophen-3-yl)-9-isopropyl-9H-purin-6-amine (compound 9, table 1) each gives rise to a greater than 10-fold increase in the number of CD34^+ CD45RA^− cells derived from 1000 mPB CD34^+ HSCs after 21 days compared to vehicle. Compounds of the invention were assayed in a dose response format (1 nM to 10 μM) to determine the effective concentration that produced the desired effect in 50% of the cells (EC50).
`CC(C)n1cnc2c(NCCc3ccc(NS(C)(=O)=O)cc3)nc(-c3cccnc3)nc21` [Example 92]: the midpoint of the response, the EC50, lay at 7100 nM.
`CC(C)n1cnc2c(NCCc3ccc(O)cc3)nc(-c3ccccc3)nc21` [Example 16] returned an EC50 of 460 nM.
In turn, `Cc1cscc1-c1nc(NCCc2ccc(O)cc2)c2ncn(C(C)C)c2n1` [Example 58] gave an EC50 of 240 nM.
As for `CC(C)n1cnc2c(NCCc3ccc(O)cc3)nc(-c3cncnc3)nc21` [Example 14], the figure is 170 nM; as for `CC(C)n1cnc2c(NCCc3ccc(O)cc3)nc(-c3cccs3)nc21` [Example 55], 1300 nM.
As for `CC(C)n1cnc2c(NCCc3cnc4[nH]ccc4c3)nc(-c3cccnc3)nc21` [Example 199], the figure is 1600 nM; as for `Cc1ccc(-c2nc(NCCc3ccc(O)cc3)c3ncn(C(C)C)c3n2)cn1` [Example 144], 160 nM; as for `CC(C)n1cnc2c(NCCc3c[nH]c4cccc(F)c34)nc(-c3cncc(F)c3)nc21` [Example 195], 3 nM.
The compound `CCCCCCCC(C)n1cnc2c(NCCc3ccc(O)cc3)nc(-c3csc4ccccc34)nc21` (stereo not drawn) [Example 21] displayed an EC50 of 130 nM.
With `Cc1cc(CCNc2nc(-c3cccnc3)nc3c2ncn3C(C)C)ccc1O` [Example 150], a half-maximal effect (EC50) was put at 57 nM.
As for `CC(C)n1cnc2c(NCCc3c[nH]c4cc(F)ccc34)nc(-c3cncc(F)c3)nc21` [Example 188], the figure is 5 nM; as for `CC(C)n1cnc2c(NCCc3ccc(O)cc3)nc(-c3cccnc3C#N)nc21` [Example 143], 4300 nM; as for `Oc1ccc(CCNc2nc(-c3csc4ccccc34)nc3c2ncn3C2CCCOC2)cc1` (stereo not drawn) [Example 4], 1490 nM.
`CC(C)n1cnc2c(NCCc3c[nH]c4c(F)cccc34)nc(-c3cncc(F)c3)nc21` [Example 196] returned an EC50 of 2 nM.
As for `CC(C)n1cnc2c(NCCc3ccc(O)cc3)nc(-c3cncs3)nc21` [Example 120], the figure is 1400 nM; as for `CC(C)n1cnc2c(NCCCc3cn[nH]c3)nc(-c3cccnc3)nc21` [Example 73], 8200 nM.
`CC(C)n1cnc2c(NCCc3ccc(O)cc3)nc(-c3cnccc3C#N)nc21` [Example 140] came in with an EC50 of 91 nM.
As for `CCC(C)n1cnc2c(NCCc3c[nH]c4ccccc34)nc(-n3ccnc3C)nc21` (stereo not drawn) [Example 178], the EC50 was 3 nM.
On to `Cc1nccn1-c1nc(NCCc2ccc(O)cc2)c2ncn(C(C)C)c2n1` [Example 123, 4-(2-(9-Isopropyl-2-(2-methyl-1H-imidazol-1-yl)-9H-purin-6-ylamino)ethyl)phenol], for which a half-maximal effect (EC50) was put at 66 nM.
In the case of `CCC(C)n1cnc2c(NCCc3c[nH]c4ccccc34)nc(-c3cncc(F)c3)nc21` (stereo not drawn) [Example 132], the midpoint of the response, the EC50, lay at 3 nM.
With `CC(C)n1cnc2c(NCCc3c[nH]c4ccccc34)nc(-c3csc4ccccc34)nc21` [Example 9, N-(2-(1H-indol-3-yl)ethyl)-2-(benzo[b]thiophen-3-yl)-9-isopropyl-9H-purin-6-amine], the response was half-maximal at 20 nM (EC50).
As to `COc1ccc2c(CCNc3nc(-c4cccnc4)nc4c3ncn4C(C)C)c[nH]c2c1` [Example 61], the response was half-maximal at 130 nM (EC50).
With `CCN(CC)CCOc1ccc2c(CCNc3nc(-c4cncc(F)c4)nc4c3ncn4C(C)C)c[nH]c2c1` [Example 176], the concentration for a half-maximal effect (EC50) was determined as 1100 nM.
Take `CC[C@H](C)n1cnc2c(NCCc3c[nH]c4ccccc34)nc(-c3cncc(F)c3)nc21` [Example 132S]: the EC50 is 2 nM.
`CC(C)n1cnc2c(NCCc3n[nH]c(N)n3)nc(-c3csc4ccccc34)nc21` [Example 82]: the EC50 worked out at 7900 nM.
As to `CC(C)n1cnc2c(NCCc3ccc(O)cc3)nc(-c3cccnc3F)nc21` [Example 118], the midpoint of the response, the EC50, lay at 450 nM.
The compound `CC(CO)n1cnc2c(NCCc3c[nH]c4ccccc34)nc(-c3cncc(F)c3)nc21` (stereo not drawn) [Example 157, 2-(6-(2-(1H-indol-3-yl)ethylamino)-2-(5-fluoropyridin-3-yl)-9H-purin-9-yl)propan-1-ol] came in with a 50% effective concentration (EC50) of 5 nM.
In the case of `Cc1cccc2[nH]cc(CCNc3nc(-c4cncc(F)c4)nc4c3ncn4C(C)C)c12` [Example 197], it took 11 nM to reach a half-maximal effect (EC50).
Take `Cc1cncc(-c2nc(NCCc3ccc(O)cc3)c3ncn(C(C)C)c3n2)c1` [Example 45]: the response was half-maximal at 63 nM (EC50).
`CC(C)n1cnc2c(NCCc3ccc(O)cc3)nc(-c3cccnc3)nc21` [Example 15] showed an EC50 of 190 nM.
As to `CC(C)n1cnc2c(NCCc3ccc(O)cc3)nc(-c3cnccc3Cl)nc21` [Example 48], the EC50 came to 510 nM.
As for `CC(C)n1c(-c2ccc(-c3ccccc3)cc2)nc2c(NCc3ccccc3)ncnc21` [Example 20], the figure is 7800 nM.
`CC(C)n1cnc2c(NCCc3ccc(O)cc3)nc(-c3cncc(C#N)c3)nc21` [Example 37] gave an EC50 of 24 nM.
Compound `COc1cc(CCNc2nc(-c3cccnc3)nc3c2ncn3C(C)C)ccc1O` [Example 60] had an EC50 of 3200 nM.
As for `CC(CO)n1cnc2c(NCCc3ccc(O)cc3)nc(-c3cccnc3)nc21` (stereo not drawn) [Example 113], the figure is 540 nM; as for `CC(C)n1cnc2c(NCCc3ccc(O)cc3)nc(-c3ccsc3)nc21` [Example 17], 970 nM; as for `CC(C)n1cnc2c(NCCc3ccc(O)c(Cl)c3)nc(-c3cccnc3)nc21` [Example 146], 240 nM.
Consider `CC(C)n1cnc2c(NCC(O)c3ccc(O)cc3)nc(-c3cncc(F)c3)nc21` (stereo not drawn) [Example 167], for which it took 290 nM to reach a half-maximal effect (EC50).
The same measure for `Oc1ccc(CCNc2nc(-c3cccnc3)nc3c2ncn3C2COC2)cc1` [Example 94]: 970 nM; for `Cc1ccc2c(CCNc3nc(-c4cncc(F)c4)nc4c3ncn4C(C)C)c[nH]c2c1` [Example 189]: 26 nM; for `Cc1cc(CCNc2nc(-c3cncc(F)c3)nc3c2ncn3C(C)CO)ccc1O` (stereo not drawn) [Example 200]: 1 nM.
In the case of `CCc1nccn1-c1nc(NCCc2ccc(O)cc2)c2ncn(C(C)C)c2n1` [Example 180], a half-maximal response (EC50) required 130 nM.
Take `COc1cncc(-c2nc(NCCc3ccc(O)cc3)c3ncn(C(C)C)c3n2)c1` [Example 33]: the EC50 came to 270 nM.
Compound `Cc1cncc(-c2nc(NCCc3c[nH]c4ccccc34)c3ncn(C(C)C)c3n2)c1` [Example 183] had an EC50 of 10 nM.
`Cc1cncc(-c2nc(NCCc3c[nH]c4ccccc34)c3ncn(C4COC4)c3n2)c1` [Example 187]: the EC50 was 34 nM.
`CC(C)n1cnc2c(NCCc3ccc(O)cc3)nc(-c3ccoc3)nc21` [Example 18] came in with an EC50 of 3900 nM.
`CC(C)n1cnc2c(NCCc3c[nH]c4ccc(F)cc34)nc(-c3cccnc3)nc21` [Example 149]: it took 520 nM to reach a half-maximal effect (EC50).
Take `CCC(C)n1cnc2c(NCCc3ccc(O)cc3)nc(-c3csc4ccccc34)nc21` (stereo not drawn) [Example 2, 4-(2-(2-(benzo[b]thiophen-3-yl)-9-sec-butyl-9H-purin-6-ylamino)ethyl)phenol]: a half-maximal effect (EC50) was put at 30 nM.
The compound `Cc1n[nH]c(SCCNc2nc(-c3cccnc3)nc3c2ncn3C(C)C)n1` [Example 76] came in with an EC50 of 6000 nM.
`Cc1cc(CCNc2nc(-c3cccnc3)nc3c2ncn3C(C)C)n[nH]1` [Example 126] gave an EC50 of 5000 nM.
With `COc1ccc2c(CCNc3nc(-c4cncc(F)c4)nc4c3ncn4C(C)C)c[nH]c2c1` [Example 169], a half-maximal response (EC50) required 44 nM.
The compound `Fc1cncc(-c2nc(NCCc3c[nH]c4ccccc34)c3ncn(C4COC4)c3n2)c1` [Example 186] yielded an EC50 of 7 nM.
In turn, `CC(C)n1cnc2c(NCCc3c[nH]c4ncccc34)nc(-c3cncc(F)c3)nc21` [Example 175] returned an EC50 of 420 nM.
As for `CC(C)n1cnc2c(NCCN3CCNC3=O)nc(-c3csc4ccccc34)nc21` [Example 81], the figure is 2700 nM; as for `Oc1ccc(CCNc2nc(-c3csc4ccccc34)nc3c2ncn3C(c2ccccc2)c2ccccc2)cc1` [Example 3], 150 nM.
The same measure for `CC(C)n1cnc2c(NCCc3ccc(O)cc3)nc(-c3cncc(C(F)(F)F)c3)nc21` [Example 129]: 120 nM; for `CC(C)n1cnc2c(NCCc3ccc(N)cc3)nc(-c3csc4ccccc34)nc21` [Example 13]: 5750 nM.
Compound `CC(C)n1cnc2c(NCCc3ccc(O)cc3)nc(-c3cccn3C)nc21` [Example 119] came in with an EC50 of 1400 nM.
Regarding `CC(C)n1cnc2c(N(C)CCc3ccc(O)cc3)nc(-c3cccnc3)nc21` [Example 99], the EC50 came to 7500 nM.
`CC(C)n1cnc2c(NCCN3CCNC3=O)nc(-c3cccnc3)nc21` [Example 70] displayed an EC50 of 2700 nM.
